Reference: US12629359B2 (UNIVERSITA' DEGLI STUDI DI BRESCIA, priority 2020, dated 2026)
“Also recorded” adds a separate entry of the source.

What was measured:
[1] = target: T1, alpha-synuclein/Synapsin III interaction (Homo sapiens, UniProt O14994+P37840); experiment: Acceptor photobleaching FRET of alpha-synuclein/Synapsin III interaction in neuronal-differentiated SK-N-SH cells; type: cell-based; settings: 10 μM, 15 min; for stimulation of alpha-synuclein/Synapsin III interaction (FRET efficiency), in words: vs basal; for % FRET efficiency change vs MPH-treated cells: vs MPH 10 μM
T1 construct: expressed in transfected cells; host or cells: neuronal-differentiated (retinoic acid) human SK-N-SH neuroblastoma cells, transient transfection with Lipofectamine 3000
T1 sequence (O14994 whole entry, one chain of several): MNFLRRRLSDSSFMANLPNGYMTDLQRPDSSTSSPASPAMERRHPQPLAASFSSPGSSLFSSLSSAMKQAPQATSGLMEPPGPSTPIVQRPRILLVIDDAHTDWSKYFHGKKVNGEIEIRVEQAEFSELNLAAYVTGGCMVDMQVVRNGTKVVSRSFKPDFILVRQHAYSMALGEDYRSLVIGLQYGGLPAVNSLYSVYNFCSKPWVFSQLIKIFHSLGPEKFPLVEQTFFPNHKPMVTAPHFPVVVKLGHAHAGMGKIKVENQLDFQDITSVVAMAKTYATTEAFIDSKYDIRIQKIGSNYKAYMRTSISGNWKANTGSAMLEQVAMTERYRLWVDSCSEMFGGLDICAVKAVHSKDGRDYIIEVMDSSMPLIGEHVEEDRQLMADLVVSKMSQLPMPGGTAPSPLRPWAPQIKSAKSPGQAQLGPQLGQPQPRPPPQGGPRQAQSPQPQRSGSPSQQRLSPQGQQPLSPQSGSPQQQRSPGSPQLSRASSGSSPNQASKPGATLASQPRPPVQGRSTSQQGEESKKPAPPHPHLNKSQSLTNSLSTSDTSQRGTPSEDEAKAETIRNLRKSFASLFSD
Method: The ability of the different compound to stimulate alpha-synuclein/Synapsin III interaction was evaluated by acceptor photobleaching FRET or FLIM in neuronal-like cells. In particular, we used neuronal-differentiated SK—N—SH neuroblastoma cells transiently transfected with red fluorescent protein (RFP)-tagged human wild type alpha-synuclein and green fluorescent protein (GFP)-tagged the human 63 kDa Synapsin III isoform.
Acceptor photobleaching FRET microscopy allows an accurate evaluation of protein-protein interaction through the measurement of FRET efficiency. This parameter is indicative of the increase of donor fluorescence after complete photobleaching of the acceptor fluorescence, within a FRET pair of fluorophores (where the emission wavelength of a donor falls within the excitation wavelength of an acceptor). Since FRET efficiency is detectable only when the two fluorophores are sufficiently close to ensure that their linked proteins are interacting, the molecular proximity of these latter results strictly dependent on this parameter^36,37. […] Human neuroblastoma SK—N—SH cells were grown in complete medium comprising Dulbecco's modified Eagle's medium with 1000 mg glucose/l supplemented with 10% heat-inactivated fetal bovine serum, 100 μg/ml penicillin and 100 μg/ml streptomycin. Cells were maintained at 37° C. under a humidified atmosphere of 5% CO2 and […]. For FRET studies, SK—N—SH cells were seeded onto poli-D-lysine-coated 13 mm glass coverslips in 24-well plates (15000 cells per coverslip) and were maintained in differentiation medium for ten days by daily adding 10 μM retinoic acid to the medium. […] Fixed cells were analyzed by means of a Zeiss confocal laser microscope LSM 880 (Carl Zeiss) with the laser set on A=488-543. After identifying double positive cells three-to-six regions of interest (ROI) were analyzed for 4 series. Two images of basal condition (Pre-bleaching) were acquired before bleaching the RFP acceptor fluorophore with laser 543 set at 65% power. Then, other two images were acquired after the bleaching (Post-bleaching). The FRET efficiency (intended as the GFP recovery after RFP photobleaching) was measured by using Zen black software (Carl Zeiss). The average intensity of the background (outside the cell) was subtracted from the average intensity of the ROI and all the FRET values resulting from the different ROI were used for statistical analysis.
Human neuroblastoma SK—N—SH cells were grown in complete medium comprising Dulbecco's modified Eagle's medium with 1000 mg glucose/l supplemented with 10% heat-inactivated fetal bovine serum, 100 μg/ml penicillin and 100 μg/ml streptomycin. Cells were maintained at 37° C. under a humidified atmosphere of 5% CO2 and […]. For FRET studies, SK—N—SH cells were seeded onto poli-D-lysine-coated 13 mm glass coverslips in 24-well plates (15000 cells per coverslip) and were maintained in differentiation medium for ten days by daily adding 10 μM retinoic acid to the medium. […] Fixed cells were analyzed by means of a Zeiss confocal laser microscope LSM 880 (Carl Zeiss) with the laser set on λ=488-543. After identifying double positive cells three-to-six regions of interest (ROI) were analyzed for 4 series. Two images of basal condition (Pre-bleaching) were acquired before bleaching the RFP acceptor fluorophore with laser 543 set at 65% power. Then, other two images were acquired after the bleaching (Post-bleaching). The FRET efficiency (intended as the GFP recovery after RFP photobleaching) was measured by using Zen black software (Carl Zeiss). The average intensity of the background (outside the cell) was subtracted from the average intensity of the ROI and all the FRET values resulting from the different ROI were used for statistical analysis.

[2] = test system: primary mesencephalic cultures; experiment: MTT cell viability assay; type: cell-based, mouse; settings: 24 h
Method: The cytotoxic effect of compounds treatment was measured by evaluating mitochondrial dehydrogenase activity using the MTT salt assay.
Neuronal differentiated SK—N—SH cells were thus exposed to different concentrations of I-threo, IV-threo, I-erythro, V-threo and V-erythro as described above, and then used for the MTT cell viability assay.
Animals: C57BL/6J wt mice (C57BL/6J) (Charles River, Wilmington, MA) used in this study, were bred in our animal house facility at the Department of Molecular and Translational Medicine of University of Brescia. Animals were maintained under a 12h light-dark cycle at a room temperature (rt) of 22° C. and had ad libitum food and water. All experiments were made in accordance to Directive 2010/63/EU of the European Parliament and of the Council of 22 Sep. 2010 on the protection of animals used. All experimental and surgical procedures conformed to the National Research Guide for the Care and Use of Laboratory Animals were approved by the Animal Research Committees of the University of Brescia (Protocol Permit 719/2015-PR). All achievements were made to minimize animal suffering and to reduce the number of animals used. Primary neuronal cultures from mesencephalic tissues were dissected from C57BL/6J 13-days embryos. Briefly, after mechanical dissociation the single cells were re-suspended in Neurobasal medium containing 100 μg/ml penicillin, 100 μg/ml streptomycin, 0.5 mM glutamine and 1% B27 supplement. Cells were then centrifuged and cell count and viability assays were performed using the Trypan Blue exclusion test. Cells were seeded onto poly-D-lysine-coated glass coverslides in 24-well plates (14 μg/mL) for immunocytochemistry (100000 cells/well). Cells were maintained at 37° C. under a humidified atmosphere of 5% CO2 and […] for at least 10 days in vitro (DIV 10) prior to their use to allow their maturation. At DIV 10, cells were treated with increasing concentrations (0.01 μM-0.1 μM-1 μM-[…]) of the different compounds (I-threo, IV-threo, I-erythro, V-threo, VI-threo). Twenty-four h after the treatments, culture medium was removed and 300 μL of MTT 0.5 mg/mL diluted in culture medium was added to each well. After 90′ incubation at 37° C., the medium was removed and 250 μL aliquots of DMSO were added to each well to solubilize the formazan crystals. Absorbance was measured at 570 nm using a microplate reader. Cell viability was expressed as absorbance value.

[3] = test system: alpha-synuclein aggregation in SK—N—SH cells; experiment: Alpha-synuclein aggregation after glucose deprivation in SK-N-SH alpha-synuclein stable clones (immunocytochemistry); type: cell-based, human; settings: for alpha-synuclein aggregates seen in images after GD: 24 h, vs non-treated (NT) cells, preliminary
Method: Human neuroblastoma SK—N—SH full length (fl) alpha-synuclein stable clones were seeded onto poly-D-lysine-coated glass coverslides in 24-well plates and were grown in complete medium comprising Dulbecco's modified Eagle's medium with 1000 mg glucose/l supplemented with 10% heat-inactivated fetal bovine serum, 100 μg/ml penicillin and 100 μg/ml streptomycin. Cells were maintained at 37° C. under a humidified atmosphere of 5% CO2 and […]. At 80% confluence, cells underwent glucose deprivation (GD) in order to induce alpha-synuclein aggregation (Bellucci, A.; et al. Journal of neurochemistry 2008, 106, 560-577). Briefly, GD was performed through an incubation of the cells with Hank's balanced salt solution supplemented with 2 mM glutamine and 10% heat-inactivated fetal bovine serum, for 1 h at 37° C. […] After 24 h of treatment, cells were fixed by incubating for 15 min in 4% paraformaldehyde with 4% sucrose in 1 M PBS, pH 7.4. The fixed cells were then stored in PBS-containing 0.05% sodium azide. Slides were incubated for 1 h at room temperature in blocking solution [2% w/v bovine serum albumin (BSA) plus 3% v/v normal goat serum in PBS], then overnight at 4° C. with the primary antibody (Syn211 antibody against alpha-synuclein) at the optimal working dilution. On the following day, cells were incubated for 1 h at room temperature with the Cy3-conjugated secondary antibody diluted in 0.1% Triton X-100 PBS plus BSA 1 mg/ml. Finally, cell nuclei were counterstained with Hoechst 33258 dye, and the coverslips were mounted onto glass slides using Vectashield.

[4] = test system: aged human alpha-synuclein transgenic mouse model of Parkinson's disease; settings: independent of dopamine transporter inhibition; abolished by Synapsin III gene silencing; cited from earlier work
[5] = test system: advanced Parkinson's disease; settings: cited from earlier work
[6] = test system: alpha-synuclein aggregation in primary mesencephalic neurons; experiment: Alpha-synuclein aggregation in primary mouse midbrain neurons exposed to glucose deprivation; type: cell-based; settings: I-threo, VI-threo 50 and 100 nM, MPH 100 nM

With `COC(=O)[C@@H](c1ccc2ccccc2c1)C1CCCCN1.Cl` (stereo partly drawn) [IV-threo] the “stimulation of alpha-synuclein/Synapsin III interaction (FRET efficiency), in words” value [1] was “not able to stimulate alpha-synuclein/Synapsin III interaction; also recorded: No significant increase” and the “cell viability (MTT) at 100 μM” value ([2]; 100 μM) was “the same profile of I-threo; also recorded: significant decrease in cell viability”.

With `COC(=O)[C@@H](Cc1ccc(C)cc1)C1CCCCN1.Cl` (stereo partly drawn) [IX-threo] the “% FRET efficiency change vs MPH-treated cells” value [1] was “+4.6%”.

For `COC(=O)C(c1ccccc1)C1CCCCN1` (stereo not shown) [MPH, Methylphenidate, reference compound], the “alpha-synuclein aggregates seen in images after GD” value ([3]; 10 μM) is listed as “a reduction in the formation of alpha-synuclein aggregates”, the EC50 ([3]; Homo sapiens, SK-N-SH cells, read-out: EC50 in reducing alpha-synuclein aggregation) is listed as 37.3 µM and the “Synapsin III-dependent locomotor activity” value [4] is listed as “over-stimulate a Synapsin III-dependent locomotor activity”. For the same molecule, the freezing of gait [5] was “efficiently counteract freezing of gait”.

With `COC(=O)[C@@H](c1ccc(-c2ccccc2)cc1)C1CCCCN1.Cl` (stereo partly drawn) [V-threo] the “stimulation of alpha-synuclein/Synapsin III interaction (FRET efficiency), in words” value [1] was “not able to stimulate alpha-synuclein/Synapsin III interaction; also recorded: No significant increase”, the “concentration from which markedly toxic (MTT)” value ([2]; 0.01-100 μM tested) was at least 100 nM and the “cytotoxicity (MTT), in words” value ([2]; low concentrations) was “cytotoxicity at low concentrations”.

In the case of `COC(=O)[C@@H](c1ccc(C)cc1)C1CCCCN1C.Cl` (stereo partly drawn) [VI-threo, threo methyl 2-(1-methylpiperidin-2-yl)-2-(p-tolyl)acetate hydrochloride], the “% FRET efficiency change vs control untreated cells” value ([1]; neuronally differentiated SK-N-SH cells) is reported as “+3.4%”, the “alpha-synuclein aggregates seen in images after GD” value ([3]; 10 μM) is reported as “no aggregates were observed” and the “formation of alpha-synuclein inclusions after GD (immunofluorescence intensity and average particle size)” value ([3]; 10 μM, 24 h after 1 h glucose deprivation, vs untreated, hydrochloride) is reported as “significantly reduce the formation of alpha-synuclein inclusions; also recorded: significantly reduce alpha-synuclein aggregation in vitro”. The “alpha-synuclein inclusion formation (total immunofluorescence intensity and particle size)” value [6] was “did not reduce alpha-synuclein aggregation” and the “toxic effects (MTT) at the working concentrations” value ([2]; concentrations reducing aggregation or stimulating interaction) was “did not exhibit toxic effects”.

For `COC(=O)[C@@H](Cc1ccccc1)C1CCCCN1.Cl` (stereo partly drawn) [VII-threo, threo methyl 3-phenyl-2-(piperidin-2-yl)propanoate hydrochloride], the “% FRET efficiency change vs MPH-treated cells” value [1] was “+4.3%”.
